Laboratory results taken from article PMC9862175 (Molecules, 2023).
Where “and” joins values, the source holds several entries; their conditions need not be identical. Equal values may be shown once. Read-outs that look alike come from different tables or passages of the source.

How the values were obtained:
[1] = biological target: T1, 17β-HSD1 (Homo sapiens, UniProt P14061); assay: 17β-HSD1 inhibition assay: transformation of [3H]-E1 to [3H]-E2 in whole T-47D cells; type: cell-based; details: for inhibition at 0.1 µM / inhibition at 1 µM / inhibition at 10 µM: T47D
T1 construct: endogenous in cells; host or cells: T-47D human breast cancer cells (ATCC), whole cells
T1 sequence (P14061 1-328): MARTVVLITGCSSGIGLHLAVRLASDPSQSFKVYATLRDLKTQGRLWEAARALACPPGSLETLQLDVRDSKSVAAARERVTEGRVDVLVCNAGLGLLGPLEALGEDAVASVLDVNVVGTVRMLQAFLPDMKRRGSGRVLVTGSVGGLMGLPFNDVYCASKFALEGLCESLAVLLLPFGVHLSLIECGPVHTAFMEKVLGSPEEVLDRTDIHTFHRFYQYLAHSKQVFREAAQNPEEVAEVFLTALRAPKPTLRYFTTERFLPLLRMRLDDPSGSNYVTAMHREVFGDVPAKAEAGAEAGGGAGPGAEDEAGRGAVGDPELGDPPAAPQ
Method: Cells were maintained under a 5% CO2 humidified atmosphere at 37 °C. The culture media were changed every two or three days and the cells were split once a week to maintain cell propagation.
T-47D cells were grown in a medium supplemented with insulin (50 ng/mL) and 5% dextran-coated charcoal-treated FBS, which was used rather than untreated 10% FBS, to remove the remaining steroid hormones. Stock solution of each compound to be tested was previously prepared in DMSO and diluted with a culture medium to achieve the appropriate concentrations, prior to use. For the assay, the cells (8000 cells/well) were seeded in a 24-well plate. After 24 h of incubation, a diluted solution of each inhibitor was added to the cells to obtain the appropriate final concentration (0.1, 1 and 10 μM). The final concentration of DMSO in the well was adjusted to 0.03%. […] Cells were incubated for 24 h and each inhibitor was assessed in triplicate. […] The organic phase was evaporated to dryness with nitrogen. Residues were dissolved in CH2Cl2, spotted on silica gel TLC plates (EMD Chemicals Inc., Gibbstown, NJ, USA) and eluted with toluene/acetone (4:1) as the solvent system. […] Each compound was quantified with a scintillation counter.

[2] = tested on: T-47D breast cancer cells; assay: Cell viability (MTS) assay in T-47D cells; type: cell-based, human; details: for IC50: cell proliferation after 3 days, MTS; for Stimulation of ER+ cell proliferation (estrogenic activity): T-47D cells, 3 days
Method: T-47D cells: Human T-47D breast cancer cells were obtained from American Type Culture Collection (Manassas, VA, USA) and cultured in RPMI-1640 supplemented with L-glutamine ([…]), penicillin (100 IU/mL), streptomycin (100 µg/mL), 17β-estradiol (1 nM) and 10% (v/v) fetal bovine serum (FBS). Cells were maintained under a 5% CO2 humidified atmosphere at 37 °C. The culture media were changed every two or three days and the cells were split once a week to maintain cell propagation.
(§1) The cell proliferation assays were performed using 3-(4,5-dimethylthiazol-2-yl)-5-(3-carboxymethoxyphenyl)-2-(4-sulfophenyl)-2H-tetrazolium (MTS) (Cell Titer 96 Aqueous, Promega, Nepean, ON, Canada), as previously described. Briefly, cells (5000/well for T-47D or 3000/well for Z-12) were plated in triplicate in 96-well plates in appropriate culture medium (total of 90 µL). Before each treatment, the cells were incubated at 37 °C in a 5% CO2 humidified atmosphere for 24 h. Compounds 5, 6, 10 and RM-581, as positive control, were dissolved in DMSO to obtain stock solutions, which were diluted at multiple concentrations with culture media to obtain the desired final concentration by adding 10 µL in each well, and the mixture was incubated for 3 days. Following treatment, 20 µL of a solution of MTS were added to each well and the mixture was incubated for 4 h. The plates were subsequently analyzed at 490 nm using a Tecan M-200 microplate reader (Männedorf, Switzerland) and the concentration inhibiting 50% of cell proliferation was determined using GraphPad Prism 6 software.

[3] = tested on: Z-12 endometriotic epithelial cells; assay: Cell viability (MTS) assay in Z-12 cells; type: cell-based, human; details: for IC50: cell proliferation after 3 days, MTS, read-out: Z-12 Cells (Endometriosis) (IC50 in μM), cell proliferation; for Stimulation of ER+ cell proliferation (estrogenic activity): Z-12 cells, 3 days
Method: Z-12 cells: Human Z-12 endometriotic epithelial cells were obtained from Dr. Asgi T. Fazleabas (Michigan State University, Grand Rapids, MI). Cells were grown in Dulbecco’s Modified Eagle medium (DMEM/F12) supplemented with 5% (v/v) FBS treated with dextran-coated charcoal, L-glutamine ([…]), penicillin (100 IU/mL) and streptomycin (100 µg/mL). Cells were maintained under a 5% CO2 humidified atmosphere at 37 °C. The culture media were changed every two or three days and the cells were split once a week to maintain cell propagation.
as §1

[4] = Homo sapiens, Epithelial cell, 72 h
[5] = read-out: Inhibition (IC50 in μM) of E1 to E2 transformation by 17β-HSD1, T-47D cells, [3H]-E1/E1 60 nM, 24 h
[6] = T-47D cells, [3H]-E1/E1 60 nM, 24 h, inhibitor 0.1 μM
[7] = T-47D cells, [3H]-E1/E1 60 nM, 24 h, inhibitor 1 μM
[8] = T-47D cells, [3H]-E1/E1 60 nM, 24 h, inhibitor 10 μM

SMILES | IC50 [1] [µM] | inhibition at 0.1 µM [1] [%] | inhibition at 1 µM [1] [%] | inhibition at 10 µM [1] [%] | IC50 ([2]; Homo sapiens, T47D, 72 h) [µM] | Stimulation of ER+ cell proliferation (estrogenic activity) [2] | IC50 [3, 4] [µM] | Stimulation of ER+ cell proliferation (estrogenic activity) [3] | further results
C[C@]12CC[C@@H]3c4ccc(Oc5cccc(C(N)=O)c5)cc4CC[C@H]3[C@@H]1CCC2=O [Compound 5, 3-(3-Carbamoylphenyloxy)-estra-1,3,5(10)-trien-17-one] | 0.31 | 29.1 ± 6.2 | 70.7 ± 14.1 | 98.9 ± 2.8 | 49 | did not stimulate | > 30 | did not stimulate | –
C[C@]12CC[C@@H]3c4ccc(Oc5cccc(C(N)=O)c5)cc4CC[C@H]3[C@@H]1CC[C@@H]2O [Compound 6, 3-(3-Carbamoylphenyloxy)-estra-1,3,5(10)-trien-17β-ol] | 1.2 | 40 ± 6.5 | 48.6 ± 15.7 | 59.6 ± 1.5 | 37 | did not stimulate | > 30 | did not stimulate | –
C[C@]12CC[C@@H]3c4ccc(Oc5cccc(C(N)=O)c5)cc4CC[C@H]3[C@@H]1C[C@@H](CCCBr)[C@@H]2O [Compound 10, 3-(3-Carbamoylphenyloxy)-16α-(3-bromopropyl)-estra-1,3,5(10)-trien-17β-ol] | – | 28.2 ± 5.4 | 37 ± 14.5 | 82.1 ± 5.7 | 14 | did not stimulate | 20 | did not stimulate | Inhibitory activity, fold lower than EM-251 ([1]; IC50 1.3 μM vs 0.58 μM of EM-251, T-47D cells): 2 fold; IC50 [1, 5]: 1.3 µM
C[C@]12CC[C@@H]3c4ccc(O)cc4CC[C@H]3[C@@H]1CCC2=O [E1, estrone] | – | – | – | – | – | – | – | – | inhibition at 0.1 µM [1, 6]: 45%; inhibition at 1 µM [1, 7]: 61%; inhibition at 10 µM [1, 8]: 78%; Inhibition (% at 0.1 μM) [1, 6]: 44.9 ± 14.7%; Inhibition (% at 1 μM) [1, 7]: 60.9 ± 8.3%; Inhibition (% at 10 μM) [1, 8]: 78.1 ± 2.2%
C[C@]12CCC3c4ccc(O)cc4CCC3C1C[C@@H](CCCBr)[C@@H]2O (some centres unmarked) [EM-251] | 0.58 | 43.8 ± 0.2 | 36.9 ± 9.3 | 86.6 ± 8 | – | – | – | – | –
C[C@]12CC[C@@H]3c4ccc(CCBr)cc4CC[C@H]3[C@@H]1C[C@H](Cc1cccc(C(N)=O)c1)[C@@H]2O [PBRM] | – | – | – | – | – | – | – | – | Inhibition (% at 0.1 μM) [1, 6]: 44% and 43.8 ± 3.4%; Inhibition (% at 1 μM) [1, 7]: 75% and 74.8 ± 3.2%; Inhibition (% at 10 μM) [1, 8]: 91.0 ± 3.8%; IC50 [1, 5]: 0.15 µM
C#C[C@]1(O)CC[C@H]2[C@@H]3CCc4cc(OC)c(N5CCN(C(=O)[C@@H]6CCCN6C(=O)c6ccc7ccccc7n6)CC5)cc4[C@H]3CC[C@@]21C [RM-581, reference compound] | – | – | – | – | – | – | – | – | IC50 [2]: 0.61 µM; IC50 [3]: 1.5 µM
